Broadly, the EC50 is the midpoint of the concentration-response curve.

Consider two compounds from US20110053995A1, “BENZENESULFONANILIDE COMPOUND INHIBITORS OF UREA TRANSPORTERS” (THE REGENTS OF THE UNIVERSITY OF CALIFORNIA, priority 2006, published 2011).

The target in this assay is T1, rat UT-A1 (Rattus norvegicus, UniProt Q62668).
T1 construct: expressed in transfected cells; host or cells: MDCK cells (gift of Dr. Jeffrey Sands, Emory University)
T1 sequence (Q62668 1-929): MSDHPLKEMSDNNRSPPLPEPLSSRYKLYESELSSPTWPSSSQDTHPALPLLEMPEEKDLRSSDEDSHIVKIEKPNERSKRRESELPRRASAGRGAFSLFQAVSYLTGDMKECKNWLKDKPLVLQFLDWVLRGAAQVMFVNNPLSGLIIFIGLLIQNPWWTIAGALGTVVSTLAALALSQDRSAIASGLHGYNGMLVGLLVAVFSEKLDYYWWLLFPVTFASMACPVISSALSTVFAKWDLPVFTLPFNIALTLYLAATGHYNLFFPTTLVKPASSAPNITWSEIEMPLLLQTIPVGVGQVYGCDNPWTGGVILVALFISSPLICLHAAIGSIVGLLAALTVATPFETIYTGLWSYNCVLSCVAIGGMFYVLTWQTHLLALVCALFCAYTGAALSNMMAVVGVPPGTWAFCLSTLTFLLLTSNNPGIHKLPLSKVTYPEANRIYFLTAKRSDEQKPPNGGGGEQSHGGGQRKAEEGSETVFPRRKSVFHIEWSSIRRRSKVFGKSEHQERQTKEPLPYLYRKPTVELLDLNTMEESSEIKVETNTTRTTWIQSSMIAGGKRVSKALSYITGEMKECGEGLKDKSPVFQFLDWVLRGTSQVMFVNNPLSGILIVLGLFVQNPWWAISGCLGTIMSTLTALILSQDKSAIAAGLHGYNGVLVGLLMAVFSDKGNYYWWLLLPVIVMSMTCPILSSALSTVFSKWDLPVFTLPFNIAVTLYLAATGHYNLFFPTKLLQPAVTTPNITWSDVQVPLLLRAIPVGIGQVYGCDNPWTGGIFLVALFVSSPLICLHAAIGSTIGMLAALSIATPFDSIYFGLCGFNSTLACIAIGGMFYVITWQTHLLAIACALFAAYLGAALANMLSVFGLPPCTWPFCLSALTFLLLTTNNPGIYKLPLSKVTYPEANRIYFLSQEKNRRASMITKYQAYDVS
Briefly: UT-A1-facilitated urea flux across MDCK-UT-A1 cell layers. It is filed as cell-based. Conditions: forskolin-stimulated MDCK-UT-A1 cells, 15-min time point; read-out: EC50 against rat UT-A1. The procedure:
Concentration-inhibition studies were performed to study the effect of the active mouse UT-B inhibitors on urea transport by UT-A. The amino acid sequences of UT-B and UT-A urea transporter isoforms share significant similarity. The cells used in these studies were MDCK cells that expressed rat UT-A1. MDCK-UT-A1-expressing cells were grown on collagen-coated porous filters until they were electrically tight, at which point 15 mM urea was introduced into buffer bathing the basolateral cell surface.
MDCK cells stably transfected with rat UT-A1 (MDCK-UT-A1) (Fröhlich et al., Am J Physiol. in press; Fröhlich et al., Am. J. Physiol. Cell Physiol. 286:C1264-70 (2004). Epub on Jan. 28, 2004) were generously provided by Dr. Jeffrey Sands (Emory University School of Medicine, Atlanta, Ga.). Cells were grown in Dulbecco's Modified Eagle Medium (DMEM) with bicarbonate and supplemented with 10% fetal bovine serum (FBS), 25 mM HEPES buffer, penicillin G (100 U/mL), streptomycin (100 μg/mL) and hygromycin (500 μg/mL). For determining urea flux, cells were grown on 12-mm collagen-coated TRANSWELL inserts (0.4 μm pore size; Costar) as described (Fröhlich et al., Am J Physiol. in press; Fröhlich et al., 2004, supra). The TRANSWELL inserts were incubated in hygromycin-free medium for 1 hr in a 5% CO2 tissue culture incubator (37° C.), and then 2×10^5 cells/cm^2 were loaded onto each insert. Cells were used after culturing the cells for 4 days in hygromycin-free medium, at which time they formed tight monolayers (transepithelial resistance 500-600 Ω·cm^2).
UT-A1-facilitated urea flux in the basolateral-to-apical direction across unstimulated and forskolin-stimulated MDCK-UT-A1 cell layers was measured in response to a 15-mM urea gradient. Experiments were carried out in 12-well plates in which PBS, containing either DMSO vehicle or forskolin, with or without UT-B inhibitor, added to both the apical-facing (0.2 mL) and basal-facing (1 mL) surfaces of cells on the porous filters. Cultures were incubated in the absence of urea for 30 min at 37° C. Then, the basal-facing solution was replaced with PBS (containing same components) with 15 mM urea. Five μL samples of apical fluid were collected at specified times during incubation at 37° C., and urea concentration was determined using a commercial kit based on chromogenic urea complexation at 520-nm wavelength (Quantichrom™ Urea Assay Kit, BioAssay Systems, Hayward, Calif.). Forskolin (10 μM), with or without UT-B transport inhibitors, was added from 1000× DMSO stock solutions (0.2% final DMSO content). Inhibition of UT-A1-mediated transport was defined as % inhibition=100% (Aforsk−Atest)/(Aforsk−Aphlor). Aforsk, and Aphlor were averaged absorbance values (at 520 nm) for cultures treated with forskolin and forskolin+phloretin, respectively, and Atest were values from cultures treated with forskolin+test compound.

Consider `NC(=O)CSc1oc(-c2ccccc2)nc1S(=O)(=O)c1ccc(Br)cc1` [ureainh-101], for which the EC50 is approximately 1.2 µM.

Consider `Cc1ccc(Nc2nnc(-c3ccc(C(N)=O)cc3)c3ccccc23)cc1` [ureainh-302], for which the EC50 was approximately 15 µM.
